# Source: ChEMBL document CHEMBL1153553, “Pharmacodynamics of RWJ-54428 against Staphylococcus aureus, Streptococcus pneumoniae, and Enterococcus faecalis in a neutropenic mouse thigh infection model” (Antimicrob Agents Chemother, 2008)
# Tests used:
# [1] = fT>MIC in neutropenic Swiss mouse thigh model infected with Enterococcus faecalis ATCC 29212 assessed as 1 log reduction of bacterial count at 1.5 to 200 mg/kg, ip administered 2 hrs postinfection measured after 24 hrs; type: functional; settings: dose mg/kg 1.5-200; route intraperitoneal
# [2] = Tmax in neutropenic Swiss mouse thigh infection model at 20 mg/kg, ip; type: ADME, organism-based; design: dose 20 mg/kg, route intraperitoneal; settings: in vivo
# Streptococcus pneumoniae [3] = assay: Antibacterial activity against penicillin-resistant Streptococcus pneumoniae SP 019 after 24 hrs by broth microdilution method; type: functional; settings: SP 019, 24 h
# [4] = Cmax in neutropenic Swiss mouse thigh infection model at 20 mg/kg, ip; type: ADME, organism-based; design: dose 20 mg/kg, route intraperitoneal; settings: in vivo
# [5] = fT>MIC in neutropenic Swiss mouse thigh model infected with Enterococcus faecalis ATCC 29212 assessed as maximal effect on bacterial count reduction at 1.5 to 200 mg/kg, ip administered 2 hrs postinfection measured after 24 hrs; type: functional; settings: dose mg/kg 1.5-200; route intraperitoneal
# [6] = fT>MIC in neutropenic Swiss mouse thigh model infected with methicillin-resistant Staphylococcus aureus 076 assessed as maximal effect on bacterial count reduction at 1.5 to 200 mg/kg, ip administered 2 hrs postinfection measured after 24 hrs; type: functional; settings: dose mg/kg 1.5-200; route intraperitoneal
# [7] = fT>MIC in neutropenic Swiss mouse thigh model infected with methicillin-resistant Staphylococcus aureus COL assessed as 1 log reduction of bacterial count at 1.5 to 200 mg/kg, ip administered 2 hrs postinfection measured after 24 hrs; type: functional; settings: dose mg/kg 1.5-200; route intraperitoneal
# [8] = Half life in neutropenic Swiss mouse thigh infection model at 20 mg/kg, ip; type: ADME, organism-based; design: dose 20 mg/kg, route intraperitoneal; settings: in vivo
# Enterococcus faecalis [9] = assay: Antibacterial activity against Enterococcus faecalis EFS 007 after 24 hrs by broth microdilution method; type: functional; settings: EFS 007, 24 h
# Enterococcus faecalis [10] = assay: Antibacterial activity against Enterococcus faecalis ATCC 29212 after 24 hrs by broth microdilution method; type: functional; settings: ATCC 29212, 24 h
# [11] = fT>MIC in neutropenic Swiss mouse thigh model infected with methicillin-resistant Staphylococcus aureus isolate 609 assessed as maximal effect on bacterial count reduction at 1.5 to 200 mg/kg, ip administered 2 hrs postinfection measured after 24 hrs; type: functional; settings: dose mg/kg 1.5-200; route intraperitoneal
# Staphylococcus aureus [12] = assay: Antibacterial activity against methicillin-resistant Staphylococcus aureus isolate 604 after 24 hrs by broth microdilution method; type: functional; settings: isolate 604, 24 h
# [13] = Apparent volume of distribution with respect to bioavailability in neutropenic Swiss mouse thigh infection model at 100 mg/kg, ip; type: ADME, organism-based; settings: in vivo, read-out: Vc/F
# [14] = fT>MIC in neutropenic Swiss mouse thigh model infected with Enterococcus faecalis EFS 007 assessed as 1 log reduction of bacterial count at 1.5 to 200 mg/kg, ip administered 2 hrs postinfection measured after 24 hrs; type: functional; settings: dose mg/kg 1.5-200; route intraperitoneal
# Staphylococcus aureus [15] = assay: Antibacterial activity against methicillin-resistant Staphylococcus aureus infected in neutropenic Swiss mouse thigh model assessed as maximal bactericidal effect per thigh at 1.5 to 200 mg/kg, ip administered 2 hrs of postinfection measured after 24 hrs; type: functional; settings: dose mg/kg 1.5-200; route intraperitoneal
# Streptococcus pneumoniae [16] = assay: Antibacterial activity against Streptococcus pneumoniae infected in neutropenic Swiss mouse thigh model assessed as maximal bactericidal effect per thigh at 1.5 to 200 mg/kg, ip administered 2 hrs of postinfection measured after 24 hrs; type: functional; settings: dose mg/kg 1.5-200; route intraperitoneal
# [17] = Cmax in neutropenic Swiss mouse thigh infection model at 100 mg/kg, ip; type: ADME, organism-based; design: dose 100 mg/kg, route intraperitoneal; settings: in vivo
# [18] = fT>MIC in neutropenic Swiss mouse thigh model infected with Streptococcus pneumoniae ATCC 49619 assessed as 1 log reduction of bacterial count at 1.5 to 200 mg/kg, ip administered 2 hrs postinfection measured after 24 hrs; type: functional; settings: dose mg/kg 1.5-200; route intraperitoneal
# [19] = AUC in neutropenic Swiss mouse thigh infection model at 100 mg/kg, ip; type: ADME, organism-based; design: dose 100 mg/kg, route intraperitoneal; settings: in vivo
# [20] = Protein binding in neutropenic Swiss mouse thigh infection model serum at 100 mg/kg, ip by ultrafiltration; type: ADME, organism-based; design: dose 100 mg/kg, route intraperitoneal; settings: read-out: PB (converted)
# Staphylococcus aureus [21] = assay: Antibacterial activity against methicillin-resistant Staphylococcus aureus isolate 609 after 24 hrs by broth microdilution method; type: functional; settings: isolate 609, 24 h
# [22] = fT>MIC in neutropenic Swiss mouse thigh model infected with Enterococcus faecalis EFS 007 assessed as static effect on bacterial count reduction at 1.5 to 200 mg/kg, ip administered 2 hrs postinfection measured after 24 hrs; type: functional; settings: dose mg/kg 1.5-200; route intraperitoneal
# Staphylococcus aureus [23] = assay: Antibacterial activity against methicillin-resistant Staphylococcus aureus isolate 602 after 24 hrs by broth microdilution method; type: functional; settings: isolate 602, 24 h
# [24] = AUC in neutropenic Swiss mouse thigh infection model at 20 mg/kg, ip; type: ADME, organism-based; design: dose 20 mg/kg, route intraperitoneal; settings: in vivo
# Staphylococcus aureus [25] = assay: Antibacterial activity against methicillin-resistant Staphylococcus aureus 076 after 24 hrs by broth microdilution method; type: functional; settings: Staphylococcus aureus, 076, 24 h
# [26] = Half life in neutropenic Swiss mouse thigh infection model at 100 mg/kg, ip; type: ADME, organism-based; design: dose 100 mg/kg, route intraperitoneal; settings: in vivo
# [27] = fT>MIC in neutropenic Swiss mouse thigh model infected with methicillin-resistant Staphylococcus aureus isolate 609 assessed as static effect on bacterial count reduction at 1.5 to 200 mg/kg, ip administered 2 hrs postinfection measured after 24 hrs; type: functional; settings: dose mg/kg 1.5-200; route intraperitoneal
# [28] = fT>MIC in neutropenic Swiss mouse thigh model infected with Streptococcus pneumoniae ATCC 49619 assessed as 2 log reduction of bacterial count at 1.5 to 200 mg/kg, ip administered 2 hrs postinfection measured after 24 hrs; type: functional; settings: dose mg/kg 1.5-200; route intraperitoneal
# [29] = fT>MIC in neutropenic Swiss mouse thigh model infected with Enterococcus faecalis EFS 007 assessed as maximal effect on bacterial count reduction at 1.5 to 200 mg/kg, ip administered 2 hrs postinfection measured after 24 hrs; type: functional; settings: dose mg/kg 1.5-200; route intraperitoneal
# [30] = Clearance with respect to bioavailability in neutropenic Swiss mouse thigh infection model at 100 mg/kg, ip; type: ADME, organism-based; settings: in vivo
# [31] = fT>MIC in neutropenic Swiss mouse thigh model infected with methicillin-resistant Staphylococcus aureus isolate 604 assessed as static effect on bacterial count reduction at 1.5 to 200 mg/kg, ip administered 2 hrs postinfection measured after 24 hrs; type: functional; settings: dose mg/kg 1.5-200; route intraperitoneal
# [32] = fT>MIC in neutropenic Swiss mouse thigh model infected with methicillin-resistant Staphylococcus aureus isolate 602 assessed as 1 log reduction of bacterial count at 1.5 to 200 mg/kg, ip administered 2 hrs postinfection measured after 24 hrs; type: functional; settings: dose mg/kg 1.5-200; route intraperitoneal
# [33] = fT>MIC in neutropenic Swiss mouse thigh model infected with methicillin-resistant Staphylococcus aureus isolate 602 assessed as static effect on bacterial count reduction at 1.5 to 200 mg/kg, ip administered 2 hrs postinfection measured after 24 hrs; type: functional; settings: dose mg/kg 1.5-200; route intraperitoneal
# [34] = fT>MIC in neutropenic Swiss mouse thigh model infected with methicillin-resistant Staphylococcus aureus isolate 602 assessed as maximal effect on bacterial count reduction at 1.5 to 200 mg/kg, ip administered 2 hrs postinfection measured after 24 hrs; type: functional; settings: dose mg/kg 1.5-200; route intraperitoneal
# [35] = fT>MIC in neutropenic Swiss mouse thigh model infected with Enterococcus faecalis ATCC 29212 assessed as static effect on bacterial count reduction at 1.5 to 200 mg/kg, ip administered 2 hrs postinfection measured after 24 hrs; type: functional; settings: dose mg/kg 1.5-200; route intraperitoneal
# [36] = fT>MIC in neutropenic Swiss mouse thigh model infected with methicillin-resistant Staphylococcus aureus COL assessed as static effect on bacterial count reduction at 1.5 to 200 mg/kg, ip administered 2 hrs postinfection measured after 24 hrs; type: functional; settings: dose mg/kg 1.5-200; route intraperitoneal
# [37] = fT>MIC in neutropenic Swiss mouse thigh model infected with Streptococcus pneumoniae ATCC 49619 assessed as static effect on bacterial count reduction at 1.5 to 200 mg/kg, ip administered 2 hrs postinfection measured after 24 hrs; type: functional; settings: dose mg/kg 1.5-200; route intraperitoneal
# [38] = fT>MIC in neutropenic Swiss mouse thigh model infected with methicillin-resistant Staphylococcus aureus COL assessed as maximal effect on bacterial count reduction at 1.5 to 200 mg/kg, ip administered 2 hrs postinfection measured after 24 hrs; type: functional; settings: dose mg/kg 1.5-200; route intraperitoneal
# [39] = fT>MIC in neutropenic Swiss mouse thigh model infected with penicillin-resistant Streptococcus pneumoniae SP 019 assessed as 1 log reduction of bacterial count at 1.5 to 200 mg/kg, ip administered 2 hrs postinfection measured after 24 hrs; type: functional; settings: dose mg/kg 1.5-200; route intraperitoneal
# [40] = fT>MIC in neutropenic Swiss mouse thigh model infected with penicillin-resistant Streptococcus pneumoniae SP 019 assessed as static effect on bacterial count reduction at 1.5 to 200 mg/kg, ip administered 2 hrs postinfection measured after 24 hrs; type: functional; settings: dose mg/kg 1.5-200; route intraperitoneal
# Staphylococcus aureus [41] = assay: Antibacterial activity against methicillin-resistant Staphylococcus aureus COL after 24 hrs by broth microdilution method; type: functional
# [42] = Protein binding in neutropenic Swiss mouse thigh infection model serum at 20 mg/kg, ip by ultrafiltration; type: ADME, organism-based; design: dose 20 mg/kg, route intraperitoneal; settings: read-out: PB (converted)
# [43] = Apparent volume of distribution with respect to bioavailability in neutropenic Swiss mouse thigh infection model at 20 mg/kg, ip; type: ADME, organism-based; settings: in vivo, read-out: Vc/F
# [44] = fT>MIC in neutropenic Swiss mouse thigh model infected with methicillin-resistant Staphylococcus aureus 076 assessed as static effect on bacterial count reduction at 1.5 to 200 mg/kg, ip administered 2 hrs postinfection measured after 24 hrs; type: functional; settings: dose mg/kg 1.5-200; route intraperitoneal
# Streptococcus pneumoniae [45] = assay: Antibacterial activity against Streptococcus pneumoniae ATCC 49619 after 24 hrs by broth microdilution method; type: functional; settings: ATCC 49619, 24 h
# [46] = Clearance with respect to bioavailability in neutropenic Swiss mouse thigh infection model at 20 mg/kg, ip; type: ADME, organism-based; settings: in vivo
# Enterococcus faecalis [47] = assay: Antibacterial activity against Enterococcus faecalis infected in neutropenic Swiss mouse thigh model assessed as maximal bactericidal effect per thigh at 1.5 to 200 mg/kg, ip administered 2 hrs of postinfection measured after 24 hrs; type: functional; settings: dose mg/kg 1.5-200; route intraperitoneal
# [48] = fT>MIC in neutropenic Swiss mouse thigh model infected with Streptococcus pneumoniae ATCC 49619 assessed as maximal effect on bacterial count reduction at 1.5 to 200 mg/kg, ip administered 2 hrs postinfection measured after 24 hrs; type: functional; settings: dose mg/kg 1.5-200; route intraperitoneal
# [49] = Tmax in neutropenic Swiss mouse thigh infection model at 100 mg/kg, ip; type: ADME, organism-based; design: dose 100 mg/kg, route intraperitoneal; settings: in vivo
compound,measurement,setting,value
CS(=O)(=O)O.NCCSCc1cnccc1SC1=C(C(=O)O)N2C(=O)[C@@H](NC(=O)/C(=N\O)c3nc(N)sc3Cl)[C@H]2SC1,fT>MIC,[1],48%
same,Tmax,[2],5.4 min
same,MIC,Streptococcus pneumoniae [3],0.5 µg/mL
same,Cmax,[4],47.3 µg/mL
same,fT>MIC,[5],60%
same,fT>MIC,[6],32%
same,fT>MIC,[7],20%
same,half-life,[8],10.2 min
same,MIC,Enterococcus faecalis [9],0.125 µg/mL
same,MIC,Enterococcus faecalis [10],0.06 µg/mL
same,fT>MIC,[11],22%
same,MIC,Staphylococcus aureus [12],0.5 µg/mL
same,Vd/F,[13],0.44 L/kg
same,fT>MIC,[14],56%
same,log10cfu,Staphylococcus aureus [15],-2.83
same,log10cfu,Streptococcus pneumoniae [16],-3.75
same,Cmax,[17],133 µg/mL
same,fT>MIC,[18],21%
same,AUC,[19],108000 ng·h/mL
same,fraction unbound,[20],0.4
same,MIC,Staphylococcus aureus [21],0.5 µg/mL
same,fT>MIC,[22],46%
same,MIC,Staphylococcus aureus [23],0.5 µg/mL
same,AUC,[24],16600 ng·h/mL
same,MIC,Staphylococcus aureus [25],1 µg/mL
same,half-life,[26],19.8 min
same,fT>MIC,[27],16%
same,fT>MIC,[28],23%
same,fT>MIC,[29],60%
same,CL/F,[30],15 mL/min/kg
same,fT>MIC,[31],20%
same,fT>MIC,[32],20%
same,fT>MIC,[33],17%
same,fT>MIC,[34],24%
same,fT>MIC,[35],30%
same,fT>MIC,[36],14%
same,fT>MIC,[37],18%
same,fT>MIC,[38],36%
same,fT>MIC,[39],22%
same,fT>MIC,[40],16%
same,MIC,Staphylococcus aureus [41],1 µg/mL
same,fraction unbound,[42],0.4
same,Vd/F,[43],0.3 L/kg
same,fT>MIC,[44],16%
same,MIC,Streptococcus pneumoniae [45],0.03 µg/mL
same,CL/F,[46],20 mL/min/kg
same,log10cfu,Enterococcus faecalis [47],-1.65
same,fT>MIC,[48],28%
same,Tmax,[49],15.6 min
